Where a name gives a salt, the structure may show the parent alone.
target: RIPK1 (recombinant GST-RIPK1 kinase domain, residues 1-327) (Homo sapiens (Human), UniProt Q13546); assay: RIPK1-ADP-Glo Enzymatic Assay; type: biochemical; details: ADP-Glo; 25 nM GST-RIPK1, 300 μM ATP; assay lower limit ~25 nM; read-out: RIPK1 V0 Ec50
In short: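 Using dephosphorylated MBP (3 μM) as substrate and 300 μM ATP, 25 nM baculovirus-produced enzyme was reacted for 150 min after a 30-min compound pre-incubation. Luminescent ADP detection followed; lower confidence limit ~25 nM.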

Chain of RIPK1 (recombinant GST-RIPK1 kinase domain, residues 1-327) (Q13546 1-327): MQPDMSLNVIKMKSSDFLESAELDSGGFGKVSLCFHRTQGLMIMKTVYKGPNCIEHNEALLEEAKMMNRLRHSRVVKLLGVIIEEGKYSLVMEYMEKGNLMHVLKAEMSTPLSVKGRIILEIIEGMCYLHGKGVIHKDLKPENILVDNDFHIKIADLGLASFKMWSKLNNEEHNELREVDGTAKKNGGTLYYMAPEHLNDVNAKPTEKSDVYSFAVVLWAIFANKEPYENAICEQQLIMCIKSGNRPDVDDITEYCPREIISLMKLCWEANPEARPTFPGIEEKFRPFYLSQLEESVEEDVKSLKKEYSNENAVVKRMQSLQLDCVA

Row | EC50 [nM] | Compound
1 | < 25 | COc1ccc(N2CCC3(CC2)O[C@@H]2CC[C@@H](c4cc(F)cc(F)c4)N2C3=O)n2ncnc12 [Example 19.3, (5′S,7a′R)-5′-(3,5-difluorophenyl)-1-(8-methoxy-[1,2,4]triazolo[1,5-a]pyridin-5-yl)tetrahydro-3′H-spiro[piperidine-4,2′ pyrrolo[2,1-b]oxazol]-3′-one, TFA salt]
2 | < 25 | C#Cc1ccc(N2CCC3(CC2)O[C@@H]2CC[C@@H](c4ccccc4)N2C3=O)n2ncnc12 [Example 21.24, (5′S,7a′R)-1-(8-ethynyl[1,2,4]triazolo [1,5-a]pyridin-5-yl)-5′-phenyltetrahydro-3′H-spiro[piperidine-4,2′-pyrrolo[2,1-b][1,3]oxazol]-3′-one]
3 | < 25 | O=C(c1cccc(C2CC2)c1)N1CCC2(CC1)O[C@@H]1CC[C@@H](c3cccc(F)c3)N1C2=O [Example 6.118, (5′S,7a′R)-1-(3-cyclopropylbenzene-1-carbonyl)-5′-(3-fluorophenyl)tetra-hydro-3′H-spiro [piperidine-4,2′-pyrrolo[2,1-b][1,3]oxazol]-3′-one]
4 | 366 | O=C1N2[C@@H](CC[C@H]2c2ccccc2)OC12CCN(c1ncccc1C(F)F)CC2 [Example 11.24, (5′S,7a′R)-1-[3-(difluoromethyl)pyridin-2-yl]-5′-phenyltetrahydro-3′H-spiro[piperidine-4,2′-pyrrolo[2,1-b][1,3]oxazol]-3′-one]
5 | 245 | Cc1nccc(C(=O)N2CCC3(CC2)O[C@@H]2CC[C@@H](c4cc(F)cc(F)c4)N2C3=O)n1 [Example 6.95]
6 | 37.8 | Cc1nc(N2CCC3(CC2)O[C@@H]2CC[C@@H](c4ccccc4)N2C3=O)ncc1-c1cnoc1 [Example 21.9, (5′S,7a′R)-1-[4-methyl-5-(1,2-oxazol-4-yl)pyrimidin-2-yl]-5′-phenyltetrahydro-3′H-spiro[piperidine-4,2′-pyrrolo[2,1-b][1,3]oxazol]-3′-one]
7 | < 25 | Cc1ccc([C@@H]2CC[C@H]3OC4(CCN(C(=O)c5ccccc5)CC4)C(=O)N32)c(F)c1 [Example 17.11, (5′S,7a′R)-1-benzoyl-5′-(2-fluoro-4-methylphenyl)tetrahydro-3′H-spiro[piperidine-4,2′-pyrrolo[2,1-b]oxazol]-3′-one]
8 | < 25 | COc1ccc(F)c(C(=O)N2CCC3(CC2)O[C@@H]2CC[C@@H](c4cccc(F)c4)N2C3=O)c1 [Example 6.131, (5′S,7a′R)-1-(2-fluoro-5-methoxybenzene-1-carbonyl)-5′-(3-fluoro-phenyl)tetrahydro-3′H-spiro[piperidine-4,2′-pyrrolo[2,1-b] [1,3]oxazol]-3′-one]
9 | 191 | N#CC1(NC(=O)c2nc(N3CCC4(CC3)O[C@@H]3CC[C@@H](c5cc(F)cc(F)c5)N3C4=O)ncc2F)CCC1 [Example 7.13, N-(1-cyanocyclobutyl)-2-[(5′S,7a′R)-5′-(3,5-difluorophenyl)-3′-oxotetrahydro-1H,3′H-spiro[piperidine-4,2′-pyrrolo[2,1-b][1,3]oxazol]-1-yl]-5-fluoropyrimidine-4-carboxamide]

Continued, compound first:

Row | Compound | EC50 [nM]
10 | O=C(c1ccccc1)N1CCC2(CC1)O[C@@H]1CC[C@@H](c3ccc(F)cc3)N1C2=O [Example 2.8, (5′S,7a′R)-1-benzoyl-5′-(4-fluorophenyl)tetrahydro-3′H-spiro[piperidine-4,2′-pyrrolo[2,1-b]oxazol]-3′-one] | 36.8
11 | O=C(c1ccccc1)N1CCC2(CC1)SC1CC[C@H](c3cc(F)cc(F)c3)N1C2=O (stereo partly drawn) [Example 1.21, (5′R)-1-benzoyl-5′-(3,5-difluorophenyl)tetrahydro-3′H-spiro[piperidine-4,2′-pyrrolo[2,1-b]thiazol]-3′-one] | 501
12 | COc1nccc(N2CCC3(CC2)O[C@@H]2CC[C@@H](c4ccccc4)N2C3=O)n1 [Example 4.17, (5′S,7a′R)-1-(2-methoxypyrimidin-4-yl)-5′-phenyltetrahydro-3′H-spiro[piperidine-4,2′-pyrrolo[2,1-b] [1,3]oxazol]-3′-one] | < 25
13 | O=C(c1cnsc1)N1CCC2(CC1)O[C@@H]1CC[C@@H](c3cc(F)cc(F)c3)N1C2=O [Example 5.51, (5′S,7a′R)-5′-(3,5-difluoro-phenyl)-1-(isothiazole-4-carbonyl)tetrahydro-3′H-spiro[piperidine-4,2′-pyrrolo[2,1-b]oxazol]-3′-one] | 48.3
14 | O=C(c1cccc(-c2nnco2)c1)N1CCC2(CC1)O[C@@H]1CC[C@@H](c3cc(F)cc(F)c3)N1C2=O [Example 6.64, (5′S,7a′R)-5′-(3,5-difluorophenyl)-1-[3-(1,3,4-oxadiazol-2-yl)benzene-1-carbon-yl]tetrahydro-3′H-spiro[piperidine-4,2′-pyrrolo[2,1-b][1,3]-oxazol]-3′-one] | < 25
15 | Cc1ncc([C@@H]2CC[C@H]3OC4(CCN(C(=O)c5ccccc5)CC4F)C(=O)N32)cc1F (stereo partly drawn) [Example 2.9, (5′S,7a′R)-1-(benzenecarbonyl)-3-fluoro-5′-(5-fluoro-6-methylpyridin-3-yl)tetrahydro-3′H-spiro[piperidine-4,2′-pyrrolo[2,1-b][1,3]oxazol]-3′-one] | 106
16 | O=C(c1ccccc1)N1CCC2(CC1)O[C@@H]1CC[C@@H](c3cccc(F)c3)N1C2=O [Example 1.5, (5′S,7a′R)-1-(benzenecarbonyl)-5′-(3-fluorophenyl)tetrahydro-3′H-spiro[piperidine-4,2′-pyrrolo[2,1-b] [1,3]oxazol]-3′-one] | < 25
17 | O=C1N2[C@@H](CC[C@H]2c2ccccc2)OC12CCN(c1ccnc3c(F)cnn13)CC2F (single isomer, unassigned) [Example 4.91, (3[R or S],4[S or R], 5′S,7a′R)-3-fluoro-1-(3-fluoropyrazolo[1,5-a]pyrimidin-7-yl)-5′-phenyltetrahydro-3′H-spiro[piperidine-4,2′-pyrrolo[2,1-b]oxazol]-3′-one, TFA salt] | < 25
18 | O=C(c1ccccc1)N1CC2(C1)S[C@@H]1CC[C@@H](c3cc(F)cc(F)c3)N1C2=O [Example 1.25, (5′S,7a′R)-1-benzoyl-5′-(3,5-difluorophenyl)tetrahydro-3′H-spiro[azetidine-3,2′-pyrrolo[2,1-b]thiazol]-3′-one] | 98.3
19 | COC(=O)c1cnc(N2CCC3(CC2)O[C@@H]2CC[C@@H](c4ccccc4)N2C3=O)cc1OC [Example 4.210, methyl 4-methoxy-6-[(5′S,7a′R)-3′-oxo-5′-phenyltetrahydro-1H,3′H-spiro[piperidine-4,2′-pyrrolo[2,1-b] [1,3]oxazol]-1-yl]pyridine-3-carboxylate] | 76
20 | O=C(c1ccc(F)c(F)n1)N1CCC2(CC1)O[C@@H]1CC[C@@H](c3cc(F)cc(F)c3)N1C2=O [Example 6.94, (5′S,7a′R)-5′-(3,5-difluorophenyl)-1-(5,6-difluoropyridine-2-carbonyl)tetrahydro-3′H-spiro[piperidine-4,2′-pyrrolo[2,1-b] [1,3]oxazol]-3′-one] | 30.5
21 | O=C1N2[C@@H](CC[C@H]2c2ccccc2F)OC12CN(c1ncco1)C2 [Example 4.272, (5′S,7a′R)-5′-(2-fluorophenyl)-1-(1,3-oxazol-2-yl)tetrahydro-3′H-spiro[azetidine-3,2′-pyrrolo[2,1-b] [1,3]oxazol]-3′-one] | 931
22 | O=C(c1ncnc2c1CCC2)N1CCC2(CC1)O[C@@H]1CC[C@@H](c3cc(F)cc(F)c3)N1C2=O [Example 6.15, (5′S,7a′R)-5′-(3,5-difluorophenyl)-1-(6,7-dihydro-5H-cyclopenta[d]pyrim-idine-4-carbonyl)-tetrahydro-3′H-spiro [piperidine-4,2′-pyrrolo-[2,1-b][1,3]oxazol]-3′-one] | 547
23 | O=C1N2[C@@H](CC[C@H]2c2ccccc2F)OC12CCN(c1cc(Cl)ncn1)CC2 [Example 4.99, (5′S,7a′R)-1-(6-chloropyrimidin-4-yl)-5′-(2-fluorophenyl)tetrahydro-3′H-spiro[piperidine-4,2′-pyrrolo[2,1-b]oxazol]-3′-one] | < 25
24 | CCOc1cccc(C(=O)N2CCC3(CC2)O[C@@H]2CC[C@@H](c4cc(F)cc(F)c4)N2C3=O)n1 [Example 6.83, (5′S,7a′R)-5′-(3,5-difluorophenyl)-1-(6-ethoxypyridine-2-carbonyl)tetrahydro-3′H-spiro[piperidine-4,2′-pyrrolo[2,1-b] [1,3]oxazol]-3′-one] | 31.8
25 | COc1cc(N2CCC3(CC2)O[C@@H]2CC[C@@H](c4cc(F)cc(F)c4)N2C3=O)nc(C)c1C#N [Example 4.69, 6-[(5′S,7a′R)-5′-(3,5-difluorophenyl)-3′-oxotetrahydro-1H,3′H-spiro[piperidine-4,2′-pyrrolo[2,1-b] [1,3]oxazol]-1-yl]-4-methoxy-2-methylpyridine-3-carbonitrile] | 114
26 | O=C1N2[C@@H](CC[C@H]2c2cc(F)cc(F)c2)OC12CCN(c1ncnn3ccnc13)CC2 [Example 4.228, (5′S,7a′R)-5′-(3,5-difluorophenyl)-1-(imidazo[2,1-f] [1,2,4]triazin-4-yl)tetrahydro-3′H-spiro[piperidine-4,2′-pyrrolo[2,1-b] [1,3]oxazol]-3′-one] | 78.9
27 | O=C(c1cc(I)c(I)c(I)c1)N1CCC2(CC1)O[C@@H]1CC[C@@H](c3cc(F)cc(F)c3)N1C2=O [Example 5.65, (5′S,7a′R)-5′-(3,5-difluoro-phenyl)-1-(3,4,5-triiodo-benzoyl)tetrahydro-3′H-spiro[piperidine-4,2′-pyrrolo[2,1-b]oxazol]-3′-one] | 244
28 | COc1nc(N2CCC3(CC2)O[C@@H]2CC[C@@H](c4cc(F)cc(F)c4)N2C3=O)ncc1Cl [Example 4.62, (5′S,7a′R)-1-(5-chloro-4-methoxypyrimidin-2-yl)-5′-(3,5-difluorophenyl)tetrahydro-3′H-spiro[piperidine-4,2′-pyrrolo[2,1-b] [1,3]oxazol]-3′-one] | 39.2

Reference: patent US12180226B2, “Spirotricycle RIPK1 inhibitors and methods of uses thereof” (Merck Sharp & Dohme LLC, priority 2021, dated 2024)
